These results are taken from a melting point compilation (Tetko et al.; mined from patent text by program, amines drawn as free bases though some values may be those of a salt).

Turning to `Cc1ccc(-c2ccc(OC3SCC(O)C(O)C3O)c(F)n2)cn1` (configuration not stated), the melting point was 189 to 190 °C. For `CS(=O)(=O)c1ccnc(Oc2cc(C#N)cc(C#N)c2)n1` the value was 189 to 191 °C. `O=C(CCc1ccc2ccccc2n1)NO` displayed a melting point of 159 to 160 °C. For the molecule `CCOC(OCC)C1Cc2c(Br)ccc(OC)c2C1=O` (configuration not stated), the melting point was in the range of 76 to 78 °C.

As to `Cc1noc(C)c1C(=O)Nc1ccc(-n2nccc2C)cc1`, the melting point fell in the range of 151 to 152 °C.

For `COc1nn(-c2ccc(C)c3c2OC(C)(C)C3)c(=O)o1`, the melting point is 60 to 62 °C. Consider `O=C(NC(Cc1ccccc1Cl)C(=O)N1CCSC1)c1cc2cc(Cl)ccc2[nH]1` (configuration not stated), for which the melting point fell in the range of 214 to 216 °C. Molecule `Cc1ccccc1OCC(O)CNC(C)(C)COc1ccc(C(N)=O)cn1` (configuration not stated) returned a melting point of 122 to 128 °C.

`Fc1cncc(F)c1C1=NC(c2ccc(I)cc2)CO1` (configuration not stated) returned a melting point of 84 to 86 °C. For the molecule `O=C(O)c1ccc(F)nc1F`, the melting point fell in the range of 170 to 171 °C. To `COc1ccc(Sc2oc3ccc(Cl)cc3c2C)nn1` belongs 131 to 134 °C.

As to `CC(C)n1cc(C(=O)O)c2ccc(F)cc21`, the melting point was in the range of 177 to 180 °C. As to `O=C(OC1CCCC1)c1ccc([N+](=O)[O-])c(OC2CCCC2)c1`, the melting point fell in the range of 45.5 to 46.5 °C. `O=c1c2ccccc2nc(CCl)n1-c1ccccc1` gave a melting point of 152 to 153 °C. `Cc1nc(N2CCN(Cc3ccc(Cl)cc3)C2=O)sc1C(N)=O` gave a melting point greater than 200 °C. For `CCOC(=O)C(Cc1ccc(-c2ccc([N+](=O)[O-])cc2)o1)(NC(C)=O)C(=O)OCC` the value was 183 to 185 °C. Regarding `Cc1c(-c2ccccc2)oc2c(OCCCCCBr)cccc2c1=O`, the melting point fell in the range of 75 to 76 °C. Regarding `COc1ccc(N2C(=O)[C@H](O)[C@H]2c2ccco2)cc1`, the melting point is 149 to 152 °C. Turning to `O=C1N(Cc2cn(C(c3ccccc3)(c3ccccc3)c3ccccc3)cn2)CCN1c1cccc(Cl)c1`, the melting point lay in the range of 162 to 166 °C. Regarding `COc1cc2c(cc1OC)CC(C(=O)O)C2`, the melting point was 133 to 135 °C.

`O=C(O)COc1c(Cl)cc(F)cc1Cl` registered a melting point of 155 to 158 °C. With `O=C(O)c1cc2c(c(-c3ccccc3)c1)C(=O)OC2=S`, the melting point is 237 to 247 °C.

`C#CCSc1ccc([N+](=O)[O-])cn1`: the melting point fell in the range of 98 to 99.5 °C. Take `CN1CCC(CNc2ncc3ncnc(Nc4ccc(F)c(Cl)c4)c3n2)CC1`: the melting point lay in the range of 198 to 201 °C. In turn, `CC(OC(C)(C)C(=O)O)c1cc(-c2ccc(Cl)cc2)no1` (single isomer, unassigned; (+)) came in with a melting point of 120 to 124 °C. For `CCOC(=O)CC(C(=O)c1ccc(Cl)cc1)C(=O)c1ccc(Cl)cc1` the value was 108 °C. `O=C(O)COc1ccc(SCc2cc(-c3ccc(Cl)cc3)no2)c2c1CCC2` gave a melting point of 92 to 94 °C. In turn, `COC(=O)C1CCSSC(C)(C)C(=O)N1` (configuration not stated) registered a melting point of 110 to 112 °C. Consider `Nc1nn(Cc2ccccc2)c2nc3n(c(=O)c12)CCS3`, for which the melting point fell in the range of 233 to 236 °C.

`COc1ccc(CCc2nc(Br)c(C(F)(F)F)[nH]2)cc1`: the melting point is 104 to 106 °C.

With `C[C@@H]1CN(c2cc3c(c(N)c2F)c(=O)c(C(=O)O)cn3C2CC2)C[C@H](C)N1`, the melting point was in the range of 253 to 254 °C.

`N#CSc1ccc(-c2nc3ccc(N)c(SC#N)c3nc2-c2ccco2)o1`: the melting point was in the range of 185 to 187 °C. In the case of `Cc1[nH]nc(Oc2ccc(C(F)(F)F)cc2[N+](=O)[O-])c1C`, the melting point fell in the range of 92 to 95 °C. For the molecule `N#Cc1ccc(C(=O)CNc2ccc(Br)cc2)cc1`, the melting point fell in the range of 154 to 157 °C. The molecule `O=C(Nc1ccc(F)cc1)Nc1cccc(OCc2ccccc2)c1` came in with a melting point of 187 to 189 °C.

Regarding `Cc1cc2cc(Nc3ccnc4cc(-c5ccc(CNCCCN(C)C)cc5)sc34)ccc2[nH]1`, the melting point came to 167 °C. For `O=c1ccn(CCO)c(C(O)c2ccc(F)cc2)c1O` (configuration not stated) the value was 187 to 188 °C. The molecule `C[C@H]1C[C@@H](Oc2cccc(NC(=O)c3ccc(F)cc3Cl)c2)CCN1C` (relative stereo) gave a melting point of 152 °C.

Take `COC(=O)C1(O)CC(CO)=NN1c1ncccc1Cl` (configuration not stated): the melting point lay in the range of 111 to 113 °C.

On to `CC(=O)OCC(=O)COC(C)=O`, for which the melting point lay in the range of 45.5 to 46.6 °C. Turning to `CCc1nn(-c2ccc(F)cc2)c2cc(Br)ccc12`, the melting point was in the range of 72 to 73 °C.

Molecule `CCCCCCCCn1c(C)cc2ccccc21` came in with a melting point of 121 to 123 °C. Take `CCCNC(=O)C1=C(C(=O)Nc2cc(OC3CCCC3)c(Cl)cc2F)CCCC1`: the melting point fell in the range of 138 to 140 °C. In the case of `O=[N+]([O-])c1ccc2c(ccn2-c2cccnc2)c1`, the melting point was 164 to 165 °C. As for `Cn1nc(-c2ncc(Cl)cc2F)c(Cl)c1C(F)(F)F`, the melting point is 76 to 78 °C. `CS(=O)(=O)c1ccc(C#CCF)cc1`: the melting point lay within 97 to 99 °C.

Molecule `O=C1OC(C2CCCCC2)(C2CCCCC2)C2CNCCN12` (configuration not stated) had a melting point of 151 to 152 °C. In turn, `COC(=O)[C@@H](NC(=O)OCc1ccccc1)[C@H](O)c1ccccc1` had a melting point of 107 to 108 °C. The molecule `O=C(O)CNC(=O)Cc1ccc(Cl)cc1SC(=O)c1ccccc1` yielded a melting point of 158 to 159 °C. `COc1ccc(C(=O)Cl)cc1C12CC3CC(CC(C3)C1)C2` displayed a melting point of 153 to 154 °C. Take `OC(c1ccc(Cl)cc1)(c1ccc(Cl)cc1)c1nccn1COCc1ccccc1`: the melting point was in the range of 139 to 141 °C.

`CC1(C)CCC(C)(C)c2cc(N(Cc3ccc(F)cc3)C(=O)Nc3ccc(C(=O)O)cc3)ccc21` registered a melting point of 143 to 146 °C.

`O=C(O)c1c(C(F)(F)F)nn(-c2c(Cl)cc(C(F)(F)F)cc2Cl)c1C(F)(F)F` registered a melting point of 185 to 190 °C. To `CC(=O)O[C@H]1CC[C@H](CCCCCCC(=O)O)CC1` belongs 66 to 68 °C; to `COc1nc2cc(Cl)cc(CCCO)c2nc1OC`, 104 to 105 °C; to `CCC(=O)N1CCC(=NO)c2cc(Cl)ccc21`, 166 to 169 °C.

`Nc1ccc(-c2ccc(=O)[nH]n2)cc1Cl` showed a melting point of 280 to 282 °C. The molecule `COc1ccc(C2=NN(C3CCN(C(=O)CN4C(=O)c5ccccc5C4=O)CC3)C(=O)C(C)(C)C2)cc1OC` gave a melting point of 193 to 194 °C. Consider `c1ccc(N2CCN(CCc3nnn[nH]3)CC2)cc1`, for which the melting point lay in the range of 190 to 194 °C. `CCC1(CC)OC(=O)Nc2ccccc21`: the melting point is 159 to 160 °C. `CS(=O)(=O)c1cc(C(F)(F)F)ccc1C(=O)O` came in with a melting point of 156 °C. For `COc1ccc(-c2ccc(-c3nc(N)nc(N)n3)cc2)cc1` the value was greater than 260 °C. `CCOC(=O)c1c(=O)c2c(F)c(F)c(F)c(F)c2n2ccccc12` had a melting point of 198 to 200 °C. `Nc1cccc(COc2cccc3c2CN(C2CCC(=O)NC2=O)C3=O)c1` (configuration not stated): the melting point lay in the range of 109 to 113 °C. In the case of `CC(Cc1ccccc1)(C(=NC#N)NCCc1ccccc1)c1ccccn1` (configuration not stated), the melting point was 162 to 164 °C. For `COc1ccc2cc([C@H](C)C(=O)OC[C@@H]3NC(=O)[C@@H](C(C)(C)S)NC3=O)ccc2c1` the value was greater than 180 °C. `CCC(=O)Nc1ccc2oc3c(c2c1)CCCC3` came in with a melting point of 164 to 165 °C.
